Laboratory results from patent US20060004051A1, “Compounds” (priority 2002, published 2006).

target: T1, recombinant GST-ALK5 (residues 198-503) (Homo sapiens, UniProt P36897); assay: Alk5 fluorescence polarization assay; type: binding; conditions: rhodamine green-labelled ligand 1 nM, ALK5 10 nM, read-out: ALK5 receptor modulator activity (IC50)
T1 construct: recombinant GST-ALK5 (residues 198-503)
T1 sequence (P36897 198-503): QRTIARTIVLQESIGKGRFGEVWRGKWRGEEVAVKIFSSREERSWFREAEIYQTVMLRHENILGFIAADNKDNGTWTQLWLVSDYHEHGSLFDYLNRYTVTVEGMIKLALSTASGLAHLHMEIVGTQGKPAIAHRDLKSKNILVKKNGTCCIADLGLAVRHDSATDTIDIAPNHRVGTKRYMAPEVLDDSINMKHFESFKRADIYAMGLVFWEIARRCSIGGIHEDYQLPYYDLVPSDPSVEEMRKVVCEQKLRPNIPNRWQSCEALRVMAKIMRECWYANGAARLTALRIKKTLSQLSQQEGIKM
Description: Assay 2 (Alk5 Fluorescence Polarization Assay)
Kinase inhibitor compounds conjugated to fluorophores, can be used as fluorescent ligands to monitor ATP competitive binding of other compounds to a given kinase. The increase in depolarization of plane polarized light, caused by release of the bound ligand into solution, is measured as a polarization/anisotropy value. This protocol details the use of a rhodamine green-labelled ligand for assays using recombinant GST-ALK5 (residues 198-503).
Assay buffer components: 62.5 mM Hepes pH 7.5 (Sigma H-4034), 1 mM DTT (Sigma D-0632), 12.5 mM MgCl2 (Sigma M-9272), 1.25 mM CHAPS (Sigma C-3023). […]
ALK5 was added to assay buffer containing the above components and 1 nM of the rhodamine green-labelled ligand so that the final ALK5 concentration was 10 nM based on active site titration of the enzyme. […] The plates were read immediately on a LJL Acquest fluorescence reader (Molecular Devices, serial number AQ1048) with excitation, emission, and dichroic filters of 485 nm, 530 nm, and 505 nm, respectively. The fluorescence polarization for each well was calculated by the Acquest reader and then imported into curve fitting software for construction of concentration response curves. The normalized response was determined relative to the high controls (1 μl DMSO in column 12, rows A-D) and the low controls (1 μl of control compound in column 12, rows E-H). […]

Compared with `CCN1CCN(c2ccc(-c3cc(-c4sc(N)nc4-c4cccc(C)n4)ccn3)cc2)CC1` [Example 3], `Cc1cccc(-c2sc(N)nc2-c2ccnc(-c3ccc(CN(C)C)cc3)c2)n1` [Example 25, 4-[2-(4-((dimethylamino)methyl)phenyl)pyridin-4-yl]-5-[6-methylpyridin-2-yl]-1,3-thiazol-2-amine] is 2.1-fold higher in IC50: 14 nM for the first, 29 nM for the second. The first is the more potent here.

test system: not given; assay: not given; conditions: not given

Going from `Nc1nc(-c2ccccn2)c(-c2ccnc(-c3ccc(N4CCOCC4)cc3)c2)s1` [Example 1] to `Nc1nc(-c2ccnc(-c3ccc(N4CCOCC4)cc3)c2)c(-c2ccccn2)s1` [Example 27, 4-[2-(4-(morpholin-4-yl)phenyl)pyridin-4-yl]-5-[pyridin-2-yl]-1,3-thiazol-2-amine], the melting point rises from 246 °C to 276 °C.

First: Cc1cccc(-c2nc(N)sc2-c2ccnc(-c3ccc(S(C)(=O)=O)cc3)c2)n1 [Example 2, 5-{2-[4-(methanesulfonyl)phenyl]pyridin-4-yl}-4-(6-methylpyridin-2-yl)-1,3-thiazol-2-amine]
Second: COc1ccc(-c2cc(-c3sc(N)nc3-c3cccc(C)n3)ccn2)cc1 [Example 8, 5-{2-[4methoxyphenyl]pyridin-4-yl}-4-(6methylpyridin-2-yl)-1,3-thiazol-2-amine]
The melting point of the first is higher: 236 to 238 °C for the first, 188 to 190 °C for the second.

First: CCN1CCN(c2ccc(-c3cc(-c4sc(N)nc4-c4cccc(C)n4)ccn3)cc2)CC1 [Example 3]
Second: Cc1cccc(-c2nc(N)sc2-c2ccnc(-c3ccc(N4CCOCC4)cc3)c2)n1 [Example 4, 5-{2-[4-(morpholin-4-yl)phenyl]pyridinyl-4-yl}-4-(6-methylpyridin-2-yl)-1,3-thiazol-2-amine]
The melting point of the first is lower: 230 to 232 °C for the first, 250 to 252 °C for the second.

First: Cc1cccc(-c2nc(N)sc2-c2ccnc(-c3ccc(C(=O)N4CCOCC4)cc3)c2)n1 [Example 5, 5-{2-[4-((morpholin-4-yl)carbonyl)phenyl]pyridin-4-yl]-4-(6-methylpyridin-2-y)-1,3-thiazol-2-amine]
Second: Cc1cccc(-c2sc(N)nc2-c2ccnc(-c3ccc(C(=O)N4CCOCC4)cc3)c2)n1 [Example 17]
The melting point of the first is lower: 158 to 160 °C for the first, 246 °C for the second.

First: Cc1cccc(-c2nc(N)sc2-c2ccnc(-c3ccc(C(=O)NC4CCOCC4)cc3)c2)n1 [Example 6, 5-{2-[4((tetrahydropyran-4-yl)-aminocarbonyl)-phenyl]pyridin-4-yl}-4-(6-methylpyridin-2-yl)-1,3-thiazol-2-amine]
Second: Nc1nc(-c2ccnc(-c3ccc(C(=O)NC4CCOCC4)cc3)c2)c(-c2ccccn2)s1 [Example 26, 4-[2-(4-((tetrahydropyran-4-yl)aminocarbonyl)phenyl)pyridin-4-yl]-5-[pyridin-2-yl]-1,3-thiazol-2-amine]
The melting point of the first is lower: 230 to 232 °C for the first, 268 °C for the second.

First: Cc1cccc(-c2nc(N)sc2-c2ccnc(-c3ccc(CN4CCOCC4)cc3)c2)n1 [Example 7, 5-{2-[4-((morpholin-4-yl)methyl)phenyl]pyridin-4-yl}-4-(6-methylpyridin-2-yl)-1,3-thiazol-2-amine]
Second: Cc1cccc(-c2sc(N)nc2-c2ccnc(-c3ccc(CN4CCOCC4)cc3)c2)n1 [Example 19, 4-[2-(4-((morpholin-4-yl)methyl)phenyl)pyridin-4-yl]-5-[6-methylpyridin-2-yl]-1,3-thiazol-2-amine]
The melting point of the first is lower: 190 to 192 °C for the first, 236 °C for the second.

First: Cc1cccc(-c2nc(N)sc2-c2ccnc(-c3ccc(OC(F)(F)F)cc3)c2)n1 [Example 9, 5-{2-[4-trifluoromethoxyphenyl]pyridin-4-yl}-4-(6-methylpyridin-2-yl)-1,3-thiazol-2-amine]
Second: Cc1cccc(-c2sc(N)nc2-c2ccnc(-c3ccc(OC(F)(F)F)cc3)c2)n1 [Example 14, 4-[2-(4-trifluoromethoxyphenyl)pyridin-4-yl]-5-[6-methylpyridin-2-yl]-1,3-thiazol-2-amine]
The melting point of the first is lower: 222 to 224 °C for the first, 232 °C for the second.

First: Cc1cccc(-c2nc(N)sc2-c2ccnc(-c3ccc(OCCN4CCCC4)cc3)c2)n1 [Example 11, 5-{2-[4-(2-(pyrrolidin-1-yl)-ethoxy)-phenyl]pyridin-4-yl}-4-(6-methylpyridin-2-yl)-1,3-thiazol-2-amine]
Second: Cc1cccc(-c2sc(N)nc2-c2ccnc(-c3ccc(OCCN4CCCC4)cc3)c2)n1 [Example 21, 4-[2-(4-(2-(pyrolidin-1-yl)-ethoxy)phenyl)pyridin-4-yl]-5-[6-methylpyridin-2-yl]-1,3-thiazol-2-amine]
The melting point of the first is higher: 176 to 178 °C for the first, 150 °C for the second.

First: Cc1cccc(-c2nc(N)sc2-c2ccnc(-c3ccc(OCc4cn(C)cn4)cc3)c2)n1 [Example 12, 5-{2-[4-((1-methyl-imidazol-4-yl)methyloxy)-phenyl]pyridin-4-yl}-4-(6-methylpyridin-2-yl)-1,3-thiazol-2-amine]
Second: Cc1cccc(-c2sc(N)nc2-c2ccnc(-c3ccc(OCC(N)=O)cc3)c2)n1 [Example 22, 4-[2-(4-(aminocarbonylmethyloxy)phenyl)pyridin-4-yl]-5-[6-methylpyridin-2-yl]-1,3-thiazol-2-amine]
The melting point of the first is higher: 226 to 228 °C for the first, 191 °C for the second.

Compared with `Cc1cccc(-c2sc(N)nc2-c2ccnc(-c3ccc(Cl)cc3)c2)n1` [Example 13, 4-[2-(4-chlorophenyl)pyridin-4-yl]-5-(6-methylpyridin-2-yl]-1,3-thiazol-2-amine], `Cc1cccc(-c2sc(N)nc2-c2ccnc(-c3ccc(CN(C)C)cc3)c2)n1` [Example 25, 4-[2-(4-((dimethylamino)methyl)phenyl)pyridin-4-yl]-5-[6-methylpyridin-2-yl]-1,3-thiazol-2-amine] is lower in melting point: 222 °C for the first, 210 °C for the second.

Going from `CCN1CCN(C(=O)c2ccc(-c3cc(-c4nc(N)sc4-c4cccc(C)n4)ccn3)cc2)CC1` [Example 18] to `Cc1cccc(-c2sc(N)nc2-c2ccnc(-c3ccc(CN4CCCC4)cc3)c2)n1` [Example 24, 4-[2-(4-((pyrrolidin-1-yl)methyl)phenyl)pyridin-4-yl]-5-[6-methylpyridin-2-yl]-1,3-thiazol-2-amine], the melting point falls from 224 °C to 200 °C.

First: Cc1cccc(-c2sc(N)nc2-c2ccnc(-c3ccc(N4CCOCC4)cc3)c2)n1 [Example 20, 4-[2-(4-(morpholin-4-yl)phenyl)pyridin-4-yl]-5-[6-methylpyridin-2-yl]-1,3-thiazol-2-amine]
Second: Cc1cccc(-c2sc(N)nc2-c2ccnc(-c3ccc(OCC(=O)N4CCOCC4)cc3)c2)n1 [Example 23, 4-[2-(4-((morpholin-4-yl)carbonylmethyloxy)phenyl)pyridin-4-yl]-5-[6-methylpyridin-2-yl]-1,3-thiazol-2-amine]
The melting point of the first is higher: 246 °C for the first, 172 °C for the second.

test system: TGF-β signalling (PAI-1 promoter linked to firefly luciferase) in HepG2 cells; assay: Cellular transcriptional assay (PAI-1 promoter luciferase reporter, TGF-β stimulated); conditions: 500 μM CPO with TGF-β; relative to TGF-β only
Description: The assay was performed in HepG2 cells stably transfected with the PAI-1 promoter (known to be a strong TGF-β responsive promoter) linked to a luciferase (firefly) reporter gene. The compounds were selected on their ability to inhibit luciferase activity in cells exposed to TGF-β. In addition, cells were transfected with a second luciferase (Renilla) gene which was not driven by a TGF-β responsive promoter and was used as a toxicity control.
96 well microplates were seeded, using a multidrop apparatus, with the stably transfected cell line at a concentration of 35000 cells per well in 200 μl of serum-containing medium. These plates were placed in a cell incubator.
18 to 24 hours later (Day 2), cell-incubation procedure was launched. Cells were incubated with TGF-β and a candidate compound at concentrations in the range 50 nM to 10 μM (final concentration of DMSO 1%). The final concentration of TGF-β (rhTGFβ-1) used in the test was 1 ng/mL. […] The final volume of the test reaction was 150 μl. Each well contained only one candidate compound and its effect on the PAI-1 promoter was monitored.
Columns 11 and 12 were employed as controls. Column 11 contained 8 wells in which the cells were incubated in the presence of TGF-β, without a candidate compound. Column 11 was used to determine the ‘reference TGF-β induced firefly luciferase value’ against which values measured in the test wells (to quantify inhibitory activity) were compared. In wells A12 to D12, cells were grown in medium without TGF-β. […]
12 to 18 hours later (day 3), the luciferase quantification procedure was launched. […] Following agitation (15 to 30 mins), luciferase activities of the plates were read in a dual-injector luminometer (BMG lumistar). For this purpose, 50 μl of luciferase assay reagent and 50 μl of ‘Stop & Glo’ buffer were injected sequentially to quantify the activities of both luciferases. […] For each of the compounds tested, a concentration response curve was constructed from which an IC50 value was determined graphically.

In the case of `O=C1C=CCC1` [CPO, Cyclopentenone, reference compound], the “firefly and renilla luciferase activities (toxicity control)” value is reported as “around 50%”.

same assay, conditions: Homo sapiens, HepG2, read-out: TGF-β cellular activity (IC50)

`CCN1CCN(c2ccc(-c3cc(-c4sc(N)nc4-c4cccc(C)n4)ccn3)cc2)CC1` [Example 3] and `Cc1cccc(-c2sc(N)nc2-c2ccnc(-c3ccc(CN(C)C)cc3)c2)n1` [Example 25, 4-[2-(4-((dimethylamino)methyl)phenyl)pyridin-4-yl]-5-[6-methylpyridin-2-yl]-1,3-thiazol-2-amine] are within 1.5-fold of each other in IC50: 29 nM for the first, 31 nM for the second.
